Experimental data taken from patent publication US20250281502A1, “NEW DRUG APPLICATION” (Centre National de la Recherche Scientifique, priority 2021, published 2025).

What was measured:
[1] = system: Human Myeloma Cell Lines (HMCLs); assay: CellTiter-Glo cell viability, IC50 in human myeloma cell lines; format: cell-based
Procedure: JJN3, OPM2, RPM18266, LP1, AMO1, SKMM2 human myeloma cell lines (HMCLs) were obtained from ATCC (Molshein, France) and were cultured in RPMI 1640 medium, supplemented with 10% fetal calf serum (Biochrom, Berlin, Germany) and 2 mM L-Glutamine. The interleukin-6-dependent cell lines XG1, XG2, XG6, XG7, XG12, XG19, XG20, XG21 were obtained as previously described and maintained in the presence of 2 ng/mL recombinant IL-6 (R&D Systems, Oxon, UK), 10% fetal calf serum and 2 mM L-Glutamine.
Cells in culture were stained using trypan blue solution (Sigma-Aldrich, St. Louis MO, USA) and viable cells were counted under a light microscope. The CellTiter-Glo Luminescent Viability assay (Promega, Leiden, The Netherlands) was used to measure the effect on cell viability according to manufacturer's instructions, and the 50% inhibition (IC50) was determined using GraphPad Prism software (http://www.graphpad.com/scientific-software/prism/).

XG2 cell line = assay: Melphalan IC50 with or without Pyridostatin, XG2 cell line; format: cell-based; conditions: Homo sapiens
[2] = system: normal cells from the bone marrow microenvironment; assay: Primary patient samples, co-cultured normal bone marrow cells by flow cytometry; format: cell-based, human; conditions: five MM patients (FIG. 6C)
Procedure: FIG. 6A represents the IC50 of Pyridostatin (nM) for […]: a is OPM2; b is XG12; c is XG21; d is XG19; e is RPM18266; f is LP1; g is XG6; h is JJN3; I is XG2; j is XG7; k: L363; I is XG1; m is AMO1; n is SKMM2 and o is XG20. IC50 of Pyridostatin +/−SD are representative of 3 independent experiments. NA: not reached. FIG. 6B represents the Pyridostatin toxicity on bone marrow cells (x-axis is the Pyridostatin concentration in μM; y-axis is the cell count in percentage of the control (0 μM of Pyridostatin)). The toxicity of Pyridostatin was assessed on primary bone marrow cells from one MM patient (dark grey bars), co-cultured with normal bone marrow microenvironment (light grey). The toxicity on MM cells and normal bone marrow cells was assessed by flow cytometry using CD138 and CD28 marker cells. FIG. 6C represents the Pyridostatin toxicity on bone marrow cells (x-axis is the Pyridostatin concentration in μM; y-axis is the cell count in percentage of the control (0 μM of Pyridostatin)). The toxicity of Pyridostatin was assessed on primary bone marrow cells from five MM patient (black bars) and co-cultured with normal bone marrow microenvironment (grey bars). The toxicity on MM cells and normal bone marrow cells was assessed by flow cytometry using CD138 and CD28 marker cells. Data are mean values of five independent experiments. […]

XG2-MeIR cell line = assay: Melphalan response with or without Pyridostatin, Melphalan-resistant XG2 cell line; format: cell-based, human; conditions: 4 days (FIGS. 14 and 15)
[3] = system: primary MM cells from patients; assay: Primary patient samples, viable CD138+ MM cells by flow cytometry; format: cell-based, human; conditions: co-cultured with bone marrow microenvironment (FIG. 6B, 6C)
MM cell = MM cell growth, apoptosis and cell cycle after Pyridostatin; format: cell-based, human
XG7-RH = assay: Western blot of DNA damage response in XG7 with inducible RNase H; format: cell-based, human; conditions: XG7-RH with doxycycline, 5 h or 24 h (FIG. 7)
Procedure: FIGS. 7A and 7B represent Western blots. Doxy stands for doxycycline. PDS stands for Pyridostatin (concentration in μM). XG7 cell line was transduced with a doxycycline-inducible lentivirus containing RNase H gene (XG7-RH). XG7-RH was cultured with or without doxycycline in absence or presence of Pyridostatin during 5 h or 24 h. Western blot membranes were stained with anti-Phospho-Chk2, anti-Phospho-P53, anti-P53, anti-PARP, anti-myc (FIG. 7A) and anti-p21, anti-p16, anti-p27 and anti-gH2AX (FIG. 7B). Tubulin protein level was used as control.
Western Blot Analysis Western blot analysis was performed as previously described (Viziteu, E. et al., Leukemia 31, 2104-2113, 2017). Tubulin was used as loading control. All antibodies used were purchased from Cell Signaling, except for p21, p27, Myc, and phospho-Histone H2A.X. Myc antibody was obtained from Santa Cruz biotechnology (Texas, USA), phospho-Histone H2A.X antibody from Merck Millipore (Sigma-Aldrich), and p27 antibody was from Sigma-Aldrich.

## CCNC(=O)C[C@@H]1N=C(c2ccc(Cl)cc2)c2cc(OC)ccc2-n2c(C)nnc21 [I-BET-762, (4S)-6-(4-Chlorophenyl)-N-ethyl-8-methoxy-1-methyl-4H-[1,2,4]triazolo[4,3-a][1,4]benzodiazepine-4-acetamide]
[1]
  sensitivity of HMCLs with high TRC score compared to low TRC score: significantly more sensitive

## N[C@@H](Cc1ccc(N(CCCl)CCCl)cc1)C(=O)O [Melphalan]
XG2 cell line; 96 h, black bars, Melphalan and Pyridostatin at 1.25 μM for 4 days, first value printed for XG2 (FIG. 15)
  IC50: 1490 nM
XG2 cell line; 96 h, black bars, Melphalan and Pyridostatin at 1.25 μM for 4 days, second value printed for XG2 (FIG. 15)
  IC50: 632 nM
XG2 cell line; grey bars, Melphalan alone, first value printed for XG2 (FIG. 15)
  IC50: 632 nM
XG2 cell line; grey bars, Melphalan alone, second value printed for XG2 (FIG. 15)
  IC50: 350 nM

## NCCOc1cc(C(=O)Nc2cc(OCCN)c3ccccc3n2)nc(C(=O)Nc2cc(OCCN)c3ccccc3n2)c1 [Pyridostatin]
[2]
  toxicity on co-cultured normal cells: without any significant toxicity
XG2-MeIR cell line
  re-sensitization of resistant cells to Melphalan: re-sensitize the resistant cells (XG2-MeIR) to Melphalan
[1]; 5 cell lines (FIG. 6A)
  resistance to PDS: higher resistance
[1]; Homo sapiens, 10 HMCLs (FIG. 6A), read-out: IC50 of Pyridostatin
  IC50: ≤ 2000 nM
[3]
  toxicity on primary MM cells: toxicity
MM cell
  MM cell growth: inhibits MM cell growth
  apoptosis: induces apoptosis
  cell cycle: significant accumulation in G2/M phase
XG7-RH
  DNA damage response after PDS treatment on inducible RNase H expression (phosphorylation of Chk2, p53; p21 and p16 expression): significant reduction of DNA damage response

## COc1cc(OC)c2c(=O)[nH]c(-c3cc(C)c(OCCO)c(C)c3)nc2c1 [RVX-208, 2-[4-(2-hydroxyethoxy)-3,5-dimethylphenyl]-5,7-dimethoxy-4(3H)-quinazolinone]
[1]
  sensitivity of HMCLs with high TRC score compared to low TRC score: significantly more sensitive
